The source made the active and inactive calls.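 The calls were made as follows: active = compounds whose IC50 is at or below a set limit; inactive = the rest.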

A word on the IC50: it is the concentration that inhibits the measured activity by half.

Sequence of Bcl-2-like protein 10 (Homo sapiens) (Q9HD36 whole entry, looked up): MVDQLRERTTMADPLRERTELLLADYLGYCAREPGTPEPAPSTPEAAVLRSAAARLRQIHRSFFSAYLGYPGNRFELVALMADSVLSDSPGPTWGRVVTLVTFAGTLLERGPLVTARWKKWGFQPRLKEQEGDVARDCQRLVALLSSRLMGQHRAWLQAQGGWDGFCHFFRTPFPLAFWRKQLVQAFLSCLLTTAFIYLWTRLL

The experiment has as its target Bcl-2-like protein 10 (Homo sapiens) (UniProt Q9HD36). Briefly: small molecules blocking Bcl-B/Bim BH3 binding – biochemical, fluorescence polarization, set 2, SAR follow-up (AID 720677). To be noted: GST-Bcl-B / FITC-Bim peptide fluorescence polarization displacement.
As for `COc1ccccc1Cn1c(=O)c2c(n3nnnc13)-c1ccccc1CC21CCCC1`, the IC50 is > 20 µM (inactive). As for `O=c1c2c(n3nnnc3n1Cc1ccccc1Cl)-c1ccccc1CC21CCCC1`, the IC50 was > 20 µM (inactive). As for `COc1ccc(Cn2c(=O)c3c(n4nnnc24)-c2cc(F)ccc2CC32CCCC2)cc1`, the IC50 was 1.01 µM. Under `COc1ccc(Cn2c(=O)c3c(n4nnnc24)-c2ccccc2CC32CCCC2)cc1` stands 0.795 µM.

Regarding `O=c1c2c(n3cnnc3n1Cc1ccc(F)cc1)-c1cc(F)ccc1CC21CCCC1`, the IC50 is > 20 µM (inactive). The same measure for `COc1cccc(Cn2c(=O)c3c(n4nnnc24)-c2ccccc2CC32CCCC2)c1`: 0.985 µM; for `COc1ccc(Cn2c(=O)c3c(n4cnnc24)-c2cc(F)ccc2CC32CCCC2)cc1`: 3.43 µM.

The record behind these values is PubChem BioAssay AID720677 (Sanford-Burnham Center for Chemical Genomics, 2013).
